Measured values published in patent US20250074946A1, “USE OF SE-DR AFFINITY PEPTIDE IN PREPARING DRUG FOR TREATING RHEUMATIC DISEASE” (HEBEI FITNESS BIOTECHNOLOGY CO., LTD., priority 2021, published 2025).
Where no end group is shown, it is not given here.

Columns and labels:
[1] = tested on: PBMC; assay: PBMC stimulation test, IL-6 in supernatant by ELISA; type: cell-based, human; conditions: PBMC 1×10^6 cell/ml, peptide 10 μg/ml, 5 days of culture
Summary of the method: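 Human PBMC isolated from blood by Ficoll density centrifugation, seeded at 1×10^6 cell/ml in 1640 complete medium with peptide at final 10 μg/ml. Cultured 5 days; IL-6 in supernatant measured by ELISA.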

[2] = tested on: CIA mice; type: in vivo, mouse
Procedure: Male DBA/1 mice were used to establish CIA model. Methods: Mice were immunized by intradermally injecting an emulsion of bovine C II and CFA (containing 100 μg collagen) at the tail head. After 21 days, the mice were boosted once by intraperitoneally injecting an emulsion of bovine C II and IFA (containing 100 μg collagen). […] Another 10 female DBA/1 mice were not subjected to model establishment and set as the control group. PBS was administrated to both the model group and the control group. Corresponding drugs were administrated to the mice in each group by tail vein injection at the volume of 10 mL/kg, once every other day, for 28 consecutive days, followed by a recovery period of 28 days. The inflammation score of the four paws of the mice in each group was evaluated during the administration (once every other day), and the area under the curve (AUC) of the inflammation score was calculated during the administration. During drug discontinuation, the inflammation scores of the four paws of the […] in each group were continuously evaluated (once every other day), and the rats were sacrificed on day 28 after drug discontinuation. HE staining was performed on the ankle joint for tissue injury evaluation. The specific scoring criteria were as follows: 0=normal synovial tissue; 1=synovial hyperplasia and inflammatory cell infiltration; 2=pannus formation and cartilage erosion; 3=destruction of most of the cartilage with subchondral bone erosion; 4=loss of joint integrity, ankylosis.

[3] = tested on: CIA mice infected with chronic hepatitis B; assay: CIA mice infected with chronic hepatitis B (Example 8); type: in vivo, mouse
Summary of the method: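 DBA/1 mice given rAAV8-1.3HBV (1×10^12 vg/mL) i.v.; 2 days later immunised intradermally with bovine CII/CFA (100 μg collagen), boosted i.p. at day 21 with CII/IFA. Randomised at paw score 1; drugs i.v. every other day for 27 days. Paw inflammation scores, serum viral and liver-function markers measured.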

[4] = tested on: CIA rats with latent tuberculosis infection
[5] = tested on: CIA rats; type: in vivo, rat
Description: Female Lewis rats were used to establish CIA model. Methods: The rats were immunized by intradermal injection with the emulsion prepared by bovine C II and IFA at the tail head. After 7 days, the rats were boosted once with the same method. Thereafter, the morphological changes of the four paws of the rats were examined every day. […] Another 8 female Lewis rats were not subjected to model establishment and set as the control group. PBS was administrated to both the model group and the control group. […] The inflammation scores of the four paws of the rats in each group were evaluated during the administration (once every other day), and the area under the curve (AUC) of the inflammation score was calculated during the administration. During drug discontinuation, the inflammation scores of the four paws of the rats in each group were continuously evaluated (once every other day), and the rats were sacrificed on day 22 after drug discontinuation. HE staining was performed on the ankle joint for tissue injury evaluation. The specific scoring criteria were as follows: 0=normal synovial tissue; 1=synovial hyperplasia and inflammatory cell infiltration; 2=pannus formation and cartilage erosion; 3=destruction of most of the cartilage with subchondral bone erosion; 4=loss of joint integrity, ankylosis.

[6] = HE staining of ankle joint, score 0-4

## FKGEQAGAGE [APL2]
[1]
  IL-6 levels in the supernatant: 2.3 ng/mL
[2]; 28 days of observation after stopping at day 28
  inflammation score during drug discontinuation compared with that at the time of drug discontinuation: could maintain the therapeutic effect
[2]; [6]
  Pathological score during 28 days of drug discontinuation: 2.05 ± 0.87
[2]; inflammation score AUC after stopping administration at day 28
  AUC, during drug discontinuation (day 29-56): 87.55 ± 40.08
[2]; mouse, in vivo
  Incidence of infection in mice: 0%
  Observation on the daily state of mice: No
[3]; at sacrifice, day 28
  ALT level: 45.88 ± 19.74 U/L
  Hepatitis B activation rate (Ratio of ALT > 100 U/L): 0%
[3]; during administration
  Observation on the daily condition of mice: No abnormality
[3]; peptides 50 μmol, Abatacept 100 μg, tail i.v. once every other day for 27 days
  Inflammation score and area under the time curve (AUC): 89.86 ± 46.14
[4]; during administration
  Observation on the daily condition of rats: No abnormality
[4]; peptides 0.2 mmol, adalimumab 1 mg/kg, 21 days
  Tuberculosis recurrence rate: 0%
[4]; peptides 0.2 mmol, adalimumab 1 mg/kg, tail i.v. once every other day for 21 days
  Inflammation score and area under the time curve (AUC): 48.03 ± 31.91
[4]; sacrifice on day 22, peptides 0.2 mmol, adalimumab 1 mg/kg
  Culture of MTB from lungs and spleens of rats at sacrifice: Negative
[5]; 21 days of observation after stopping at day 21
  inflammation score during drug discontinuation compared with that at the time of drug discontinuation: could maintain the therapeutic effect
[5]; [6]
  Pathological score during 21 days of drug discontinuation: 1.93 ± 0.58
[5]; inflammation score AUC after stopping administration at day 21
  AUC, during drug discontinuation (day 22-42): 42.86 ± 31.21
[5]; rat, in vivo
  Incidence of infection in rats: 0%
  Observation on the daily state of rats: No
